Consider five compounds from patent US12589101B2, “Cyclodextrin protein drug conjugates” (Regeneron Pharmaceuticals, Inc., priority 2017, dated 2026).

Structures are written as SMILES. pEC50: −log10 of the molar value. Values after ≈ are worked out from the molar mass of the structure shown. Like-named read-outs stand apart in the source and are kept apart here. Square brackets hold non-standard residues; d marks the D form. Peptide text beside a SMILES is read from it. * marks the point of attachment. Dolaproine = CO[C@@H]([C@@H]1CCCN1)[C@@H](C)C(=O)O; Dil = CC[C@H](C)[C@H](NC)[C@@H](CC(=O)O)OC; X1 = C[C@@H](N*)[C@@H](O)c1ccccc1; NMeV = CN[C@H](C(=O)O)C(C)C

One data set concerns SKBR3 cells. Nature of the data set: SKBR3 cytotoxicity assay (CellTiter-Glo). In kind it is cell-based. On the procedure: To assess the comparability of ADCs with and without CDs containing cytotoxic payloads, a cytotoxicity assay used SKBR3 cells. SKBR3 cells have been commonly used to assess aHer2 ADC activity. An aPRLR ADC has been used as a control mAb ADC in the SKBR3 cytotoxicity assay. For the assay, in vitro cytotoxicity of anti-Her2 ADCs or PRLR ADCs were evaluated using the CellTiter-Glo Assay Kit (Promega, Cat #G7573), in which the quantity of ATP present is used to determine the number of viable cells in culture. For the assay, SKBR3 cells were seeded at 6000 cells/well on Nunclon white 96 well plates in complete growth medium and grown overnight at 37° C. in 5% CO2. For cell viability curves, 1:4 serially diluted ADCs or free payload MMAE were added to the cells at concentrations starting at 100 nM including a no treatment control and were then incubated for 5 days. After the 5-day incubation, cells were incubated at room temperature with 100 μL of CellTiter-Glo reagents for 5 minutes. Relative luminescence units (RLU) were determined on a Victor plate reader (PerkinElmer). The IC50 values were determined from a four-parameter logistic equation over a 10-point response curve (GraphPad Prism). All curves and EC50 values were corrected for payload equivalents. All IC50s are expressed in nM concentration and percentage of cells killed (% kill) is reported for the highest concentration tested.
For orientation: ATP-based viability assays read luminescence as a measure of living cells.

In a further data set the target is Cathepsin B (Homo sapiens, UniProt P07858). The experiment in a line: Cathepsin B cleavage rate of linker-payloads (Example 66). The data set is classed as biochemical. Particulars: for capB / CapB (%): Cathepsin B cleavage rate; for capB: Table 8A; for CapB (%): pH 5.0, 37° C. On the procedure: Step 1: Preparation of Cathepsin B buffer: 0.1 M NaOAc/0.01M DTT (pH5.0) Dissolve 8.3 g/L NaOAc, 1.54 g/L DTT in deionized water. Adjust pH to 5.0 with HCl/sodium hydroxide.
Step 2: Test Cleavage Rate
• 1. Prepare 25 μM of testing sample: To a 2-mL-tube was added 0.5 mg of testing sample, followed by the addition of 0.2 mL of DMSO. The solution was added dropwise into 0.8 mL of 0.1 M NaOAc/0.01 M DTT buffer. The obtained mixtures were sonicated for 5 minutes to obtain clear and colorless solutions. The pH value of the solution was around 5 according to pH test strip. • 2. Preheat assay buffer: 0.1 M NaOAc/0.01 M DTT (pH 5.0) • 3. Spiking solutions for test compounds: 25 μM Spiking solutions for test compounds: Add 2 μL of 5 mM stock solution into 398 μL of 0.1 M NaOAc/0.01 M DTT buffer (pH 5.0). • 4. Prepare 0.47 μg/μL Cathepsin B in 50 mM NaOAc/1 mM EDTA (pH 5.0). Put on ice. • 5. Without CA074 samples: Add 4 μL of 0.47 μg/μL Cathepsin B into 196 μL of 25 μM Spiking solutions (from step 2), incubate the tubes at 37° C. • 6. With CA074 samples: Add 4 μL of 0.47 μg/μL Cathepsin B with 4 μL of 10 mM Inhibitor (CA074) into 196 μL of 25 μM Spiking solutions (from step 2), incubate the tubes. • 7. After quenching, shake the plate and centrifuge them at 14000 rpm. • 8. Transfer 50 μL of the supernatant from each well into a 96-well sample plate containing 50 μL of ultra pure water (Millipore, ZMQS50F01) for LC/MS analysis. Step 3: Test reference compounds: • 9. Preheat assay buffer: 100 mM Na/K phosphate, pH 6.0, with 1.33 mM EDTA and 2 mM DTT. • 10. Prepare 0.024 μg/μL Cathepsin B: Add 1 μL of 0.47 μg/μL Cathepsin B stock into 19 μL of assay buffer (from step 11). • 11. Add 2 μL of 0.024 μg/μL Cathepsin B (from step 12) to a opaque 96-well plate. • 12. Add 96 μL of assay buffer to each sample. • 13. Add 2 μL of the 10 mM substrate Z-RR-MNA (200 μM final concentration). • 14. For negative control (With inhibitor), add 2 μL of 10 mM Inhibitor (CA074): Immediately read the samples in a kinetic mode at excitation of 340 nm/emission of 425 nm (Read the plate every 30 Second for 3 min). Step 4: Stability of Cathepsin B in incubation samples: • 15. Take 5 μL of incubation samples into 93 μL of assay buffer (from step 11), and then add 2 μL of 10 mM substrate (Z-RR-MNA). • 16. Incubate the samples at 37° C. for 2 min. • 17. Read the samples at excitation of 340 nm/emission of 425 nm.

Data set [1] can be described thus: Solubility of linker-payloads (LC-MS standard curve, saturated solution). In kind it is physicochemical. On the procedure: The following test assays the solubility of the linker-payloads with a cyclodextrin moiety and the linker-payloads without a cyclodextrin moiety.
The test compounds were dissolved in DMSO to build a standard curve using LC-MS method A or B. The test sample was dissolved in water and sonicated for 10 minutes, and then centrifuged. The upper clear solution was analyzed using the same method A or B and the solubility was calculated based on its peak area.
Detailed test procedures were as follows: • 1. […] 0.05 mg of compound was suspended in water (1 mL) and sonicated for 10 minutes. After centrifugation, the clear solution above was collected to provide the saturated sample solution. • 3. All the standard solutions A, B, C, D, E and sample solution were analyzed by LCMS (using the same method and same injection volume) to obtain the peak areas. • 4. Calculate the standard curve according to the data of A-D (X=concentration, Y=peak areas). • 5. Calculate to obtain the concentration of saturated sample solution according to the functions obtained above.

The next data set addresses T1, Human liver Cathepsin B (Homo sapiens, UniProt P07858).
T1 construct: Human liver Cathepsin B (Athens Research & Technology, Cat #16-12-030102); purchased Athens Research & Technology 16-12-030102; host or cells: human liver
The experiment in a line: Cathepsin B cleavage assay, payload released (Example 73). The data set is classed as biochemical. Particulars: 37° C., 50 μM substrate, pH 5. As to the method:
To determine the effect on the cleavage efficiency on a steroid or LXR agonist payload when a cyclodextrin moiety was added in the linker, a Cathepsin B cleavage assay was performed. For the assay, the linker-payload stock solution (10 mM of linker-payload in DMSO) was added into a solution of 100 mM NaOAc, 10 mM dithiothreitol, at pH5 to obtain a 50 μM substrate solution. Human liver Cathepsin B (Athens Research & Technology, Cat #16-12-030102) in 50 mM NaOAc, 1 mM EDTA, at pH 5, was added to the substrate solution. The Cathepsin B and substrate solution was mixed with and without 10 mM of a Cathepsin B inhibitor (CA074; APE Bio, Cat #A1926), and incubated at 37° C. for 4 hours. Following the 4 hour incubation, acetic acid and then acetonitrile were added to stop the reaction. The quenched samples then underwent centrifugation at 14,000 rpm. Aliquots of the resultant supernatants were then diluted with equal volume of water and analyzed by LC/MS to determine the amount of payload released. The stability and activity of Cathepsin B was confirmed by incubating with 200 μM fluorogenic substrate for Cathepsin B (Santa Cruz Biotechnology, Cat #207975) (fluorescence at excitation of 340 nm/emission of 425 nm).

The mark [2] stands for this setting: water, thermodynamic from solid, Table 8A, read-out: Solubility.
The mark [3] stands for this setting: water, thermodynamic from solid, aqueous, read-out: Aq. Solubility.
Setting [4] is: water, thermodynamic from solid, Aq. Solubility (mg/mL).
[5] abbreviates: water, thermodynamic from solid, Solubility.

The compound `CC[C@H](C)[C@@H]([C@@H](CC(=O)N1CCC[C@H]1[C@H](OC)[C@@H](C)C(=O)N[C@H](C)[C@@H](O)c1ccccc1)OC)N(C)C(=O)[C@@H](NC(=O)[C@@H](NC)C(C)C)C(C)C` [MMAE] (H-[NMeV]V[Dil][Dolaproine]-X1) gave a pEC50 in the data set on SKBR3 cells (Homo sapiens, SK-BR-3, 120 h) of 9.72. The “% kill” value with SKBR3 cells (SKBR3 cells, 5 days, highest concentration tested) is listed as at least 90%.
As to `CCCC1O[C@@H]2C[C@H]3[C@@H]4C[C@H](F)C5=CC(=O)C=C[C@]5(C)[C@@]4(F)[C@@H](O)C[C@]3(C)[C@]2(C(=O)CNC(=O)OCc2ccc(NC(=O)[C@H](CCCNC(N)=O)NC(=O)[C@@H](NC(=O)CCOCCOCCOCCOCCNC(=O)CCC(=O)N3Cc4ccccc4C#Cc4ccccc43)C(C)C)cc2)O1` (stereo partly shown) [Ex58, DIBAC-suc-PEG4-vcPAB-1h], at Cathepsin B, the capB turned out to be 20.8% and the “CapB (%)” value was “% (% ≤50 CapB (%))”. Besides, the solubility at 10 min in data set [1] (setting [2]) is below 20 µg/mL. The solubility at 10 min in data set [1] (setting [3]) was below 20 µg/mL. Besides, the “Percent of payload released at 4 hrs” value at Human liver Cathepsin B is listed as 7.5-17.2%.
On to `CCCC1O[C@@H]2C[C@H]3[C@@H]4C[C@H](F)C5=CC(=O)C=C[C@]5(C)[C@@]4(F)[C@@H](O)C[C@]3(C)[C@]2(C(=O)CNC(=O)OCc2ccc(NC(=O)[C@H](CCCNC(N)=O)NC(=O)[C@@H](NC(=O)[C@@H](CCCCNC(=O)COC3CCCCCc4c3nnn4CC3OC4OC5C(CO)OC(OC6C(CO)OC(OC7C(CO)OC(OC8C(CO)OC(OC9C(CO)OC(OC3C(O)C4O)C(O)C9O)C(O)C8O)C(O)C7O)C(O)C6O)C(O)C5O)NC(=O)CCOCCOCCOCCOCCNC(=O)CCC(=O)N3Cc4ccccc4C#Cc4ccccc43)C(C)C)cc2)O1` (stereo partly shown) [Ex59, DIBAC-suc-PEG4-dLys(COT-CD)-vcPAB-1h], for which the capB at Cathepsin B is recorded as 29%. Also, on Cathepsin B, the “CapB (%)” value is “% (% ≤50 CapB (%))”. Also, the solubility at 10 min in data set [1] (setting [2]) turned out to be 26 µg/mL (≈ 9.64 µM); in data set [1] (setting [3]) it was 26 µg/mL (≈ 9.64 µM); in data set [1] (water, thermodynamic from solid, water, read-out: Solubility), 26 µg/mL (≈ 9.64 µM). Besides, on Human liver Cathepsin B, the “Percent of payload released at 4 hrs” value worked out at 28.9%.
For the compound `CC(C)[C@H](NC(=O)[C@@H](CCCCNC(=O)COC1CCCCCc2c1nnn2CC1OC2OC3C(CO)OC(OC4C(CO)OC(OC5C(CO)OC(OC6C(CO)OC(OC7C(CO)OC(OC1C(O)C2O)C(O)C7O)C(O)C6O)C(O)C5O)C(O)C4O)C(O)C3O)NC(=O)CCOCCOCCOCCOCCNC(=O)CCC(=O)N1Cc2ccccc2C#Cc2ccccc21)C(=O)N[C@@H](C)C(=O)Nc1ccc2c(c1)[C@@]1(C)CCC[C@](C)(C(=O)NC(=O)[C@@]3(C)CCC[C@]4(C)c5cc(O)ccc5CC[C@@H]34)[C@@H]1CC2` (stereo partly shown) [Ex49], on Cathepsin B, the capB is 38.5% [1] and the “CapB (%)” value is “% % (60< % % ≤70 CapB (%))”. Besides, in data set [1] (10 min), the “Concentration (mM) of saturated solution” value was 0.019 mM and the Solubility came to 0.05 mg/ mL mg/mL. The solubility (thermodynamic) at 10 min in data set [1] (water, thermodynamic from solid) amounted to 48 µg/mL (≈ 19 µM). The solubility at 10 min in data set [1] (setting [4]) was found to be 50 µg/mL (≈ 19.8 µM). This compound showed a solubility at 10 min in data set [1] (setting [5]) of 50 µg/mL (≈ 19.8 µM). The “Percent of payload released at 4 hrs” value at Human liver Cathepsin B was 38.5%.
For `CC(C)[C@H](NC(=O)CCOCCOCCOCCOCCNC(=O)CCC(=O)N1Cc2ccccc2C#Cc2ccccc21)C(=O)N[C@@H](C)C(=O)Nc1ccc2c(c1)[C@@]1(C)CCC[C@](C)(C(=O)NC(=O)[C@@]3(C)CCC[C@]4(C)c5cc(O)ccc5CC[C@@H]34)[C@@H]1CC2` [Ex48, 1-(4-{2-Azatricyclo[10.4.0.0^4,9]hexadeca-1(12),4(9),5,7,13,15-hexaen-10-yn-2-yl}-4-oxobutanamido)-N-[(1S)-1-{[(1 S)-1-{[(4bS,8S,8aR)-8-{[(1S,4aS,10aR)-6-hydroxy-1,4a-dimethyl-1,2,3,4,4a,9,10,10a-octahydrophenanthrene-1-carbonyl]carbamoyl}-4b,8-dimethyl-4b,5,6,7,8,8a,9,10-octahydrophenanthren-3-yl]carbamoyl}ethyl]carbamoyl}-2-methylpropyl]-3,6,9,12-tetraoxapentadecan-15-amide], on Cathepsin B, the “Cathepsin B cleavage rate” value worked out at 62%, the capB was determined as 13.6% and the “CapB (%)” value is “% (% ≤50 CapB (%))”. For the same compound, the Solubility in data set [1] (10 min) is below 0.1 mg/ mL mg/mL. The compound further showed a solubility at 10 min in data set [1] (setting [4]) below 100 µg/mL. For the same compound, in data set [1] (setting [5]), the solubility at 10 min was below 100 µg/mL. Moreover, the “Percent of payload released at 4 hrs” value on Human liver Cathepsin B amounted to 13.6%.

In general, pEC50 refers to the EC50 on a negative log10 scale, so that one unit is a factor of ten. A low value points to a large EC50. One may read the solubility as how much of the substance goes into solution per volume. What is called thermodynamic solubility is solubility found after equilibrating the solid with the medium.
